Assay results from the supplement of paper PMC10920090.

Key:
MDA-MB-231 [1] = test: drug sensitivity score (DSS), cell viability CellTiter-Glo; higher = more sensitive; extreme values may be limits of the assay; settings: 72 h
MDA-MB-231 [2] = test: drug sensitivity score (DSS), cytotoxicity CellTox Green; higher = more cytotoxic; extreme values may be limits of the assay; settings: 72 h
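For drug sensitivity score (DSS), cytotoxicity CellTox Green in this document: DSS summarises each dose–response curve by combining IC50, EC50, maximal inhibition and efficacy across drug concentrations.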

Row | SMILES | drug sensitivity score (MDA-MB-231 [1]; shRNA: shPPFIA1_1) [DSS] | drug sensitivity score (MDA-MB-231 [1]; shRNA: shScramble) [DSS] | drug sensitivity score (MDA-MB-231 [2]; shRNA: shPPFIA1_1) [DSS] | drug sensitivity score (MDA-MB-231 [2]; shRNA: shScramble) [DSS]
1 | COc1cc2c(NC3CCN(C(C)C)CC3)nc(N3CCC(F)(F)CC3)nc2cc1OCCCN1CCCC1 [UNC0642] | 3.5 | 3.1 | 3 | 0.5
2 | O=C(c1ccc(C(=O)N2CCC(N3CCCC3)CC2)c(Nc2ccccc2)c1)N1CCC(N2CCCC2)CC1 [UNC1215] | 0.4 | 0.3 | 0 | 0
3 | CCCCNc1ncc(C(=O)NCc2ccc(-n3ccnc3)cc2)c(NC2CCC(O)CC2)n1 (stereo not drawn) [UNC2881] | 0 | 0.5 | 0 | 0
4 | NC(=O)c1cccc(-c2cccc(OC(=O)NC3CCCCC3)c2)c1 [URB597] | 0.2 | 0 | 0 | 0
5 | CC(C)Nc1cc(-c2c[nH]c(C(=O)N[C@H](CO)c3cccc(Cl)c3)c2)c(Cl)cn1 [Ulixertinib] | 0 | 2.1 | 0 | 2.7
6 | Cn1ncc(Cl)c1-c1cc(C(=O)N[C@H](CN)Cc2ccc(F)c(F)c2)oc1Cl [Uprosertib] | 0 | 0 | 0 | 0
7 | Oc1ncc(N(CCCl)CCCl)c(O)n1 [Uramustine] | 0 | 0 | 0 | 0
8 | CS(=O)(=O)c1ccc(-c2cnc(N)c(C(=O)Nc3ccccc3)n2)cc1 [VE-821] | 0 | 0 | 0 | 0
9 | O=C(O)CC1CC(c2ccccc2)=NO1 (stereo not drawn) [VGX-1027] | 0 | 0 | 0 | 0
10 | CNC(=O)c1ccccc1Nc1cc(Nc2ccc(N3CCOCC3)cc2OC)ncc1C(F)(F)F [VS-4718] | 0 | 0 | 0 | 0
11 | O=c1ncn2nc(Sc3ccc(F)cc3F)ccc2c1-c1c(Cl)cccc1Cl [VX 745] | 0 | 0 | 0 | 0
12 | CCCC(CCC)C(=O)O [Valproic acid] | 0 | 0 | 0 | 0
13 | CCCCC(=O)OCC(=O)[C@]1(O)Cc2c(O)c3c(c(O)c2[C@@H](O[C@H]2C[C@H](NC(=O)C(F)(F)F)[C@H](O)[C@H](C)O2)C1)C(=O)c1c(OC)cccc1C3=O [Valrubicin] | 0.8 | 7 | 0 | 0
14 | COc1cc2/c(=N/c3ccc(Br)cc3F)nc[nH]c2cc1OCC1CCN(C)CC1 [Vandetanib] | 3.6 | 0 | 0 | 2
15 | CCc1c(C(=O)C(N)=O)c2c(OCC(=O)O)cccc2n1Cc1ccccc1 [Varespladib] | 0 | 0 | 0 | 0
16 | Clc1ccc(Nc2nnc(Cc3ccncc3)c3ccccc23)cc1 [Vatalanib] | 0 | 0 | 0 | 0

Row | SMILES | drug sensitivity score (MDA-MB-231 [1]; shRNA: shPPFIA1_1) [DSS] | drug sensitivity score (MDA-MB-231 [1]; shRNA: shScramble) [DSS] | drug sensitivity score (MDA-MB-231 [2]; shRNA: shPPFIA1_1) [DSS] | drug sensitivity score (MDA-MB-231 [2]; shRNA: shScramble) [DSS]
17 | C[C@]1(c2nc3c(C(N)=O)cccc3[nH]2)CCCN1 [Veliparib] | 0 | 0 | 0 | 0
18 | CCCS(=O)(=O)Nc1ccc(F)c(C(=O)c2c[nH]c3ncc(-c4ccc(Cl)cc4)cc23)c1F [Vemurafenib] | 0 | 0 | 0 | 1.8
19 | CC1(C)CCC(CN2CCN(c3ccc(C(=O)NS(=O)(=O)c4ccc(NCC5CCOCC5)c([N+](=O)[O-])c4)c(Oc4cnc5[nH]ccc5c4)c3)CC2)=C(c2ccc(Cl)cc2)C1 [Venetoclax] | 0 | 0 | 0 | 0
20 | O=C(/C=C\n1cnc(-c2cc(C(F)(F)F)cc(C(F)(F)F)c2)n1)NNc1ccccn1 [Verdinexor] | 0 | 5.7 | 4.4 | 4.2
21 | CC[C@]1(O)C[C@@H]2CN(CCc3c([nH]c4ccccc34)[C@@](C(=O)OC)(c3cc4c(cc3OC)N(C)[C@H]3[C@@](O)(C(=O)OC)[C@H](OC(C)=O)[C@]5(CC)C=CCN6CC[C@]43[C@@H]65)C2)C1 [Vinblastine] | 0 | 9.6 | 9 | 9.2
22 | CC[C@]1(O)C[C@H]2CN(CCc3c([nH]c4ccccc34)[C@@](C(=O)OC)(c3cc4c(cc3OC)N(C=O)[C@H]3[C@@](O)(C(=O)OC)[C@H](OC(C)=O)[C@]5(CC)C=CCN6CC[C@]43[C@@H]65)C2)C1 [Vincristine] | 0 | 8.1 | 4.9 | 6
23 | CS(=O)(=O)c1ccc(C(=O)Nc2ccc(Cl)c(-c3ccccn3)c2)c(Cl)c1 [Vismodegib] | 0 | 0 | 2.2 | 0
24 | CC[C@@H]1C(=O)N(C)c2cnc(Nc3ccc(C(=O)N[C@H]4CC[C@H](N5CCN(CC6CC6)CC5)CC4)cc3OC)nc2N1C(C)C [Volasertib] | 0 | 6.6 | 0 | 0
25 | O=C(CCCCCCC(=O)Nc1ccccc1)NO [Vorinostat] | 2.4 | 6.6 | 6.9 | 2.5
26 | CCn1c(=O)c(-c2cc[nH]n2)cc2c(C)nc(N)nc21 [Voxtalisib] | 0.8 | 4.3 | 0 | 0.2
27 | Oc1nc(-c2ccc(C(F)(F)F)cc2)nc2c1CSCC2 [XAV-939] | 1.6 | 0.5 | 1.2 | 0
28 | O=C(Nc1ccc(-c2ccnc(Nc3ccc(N4CCOCC4)cc3)n2)cc1)C1CCCN1 (stereo not drawn) [XL019] | 0 | 0.6 | 0 | 0
29 | COc1cc2c(Nc3ccc(Cl)c(Cl)c3F)ncnc2cc1OC[C@@H]1C[C@@H]2CN(C)C[C@@H]2C1 [XL-647] | 0 | 0 | 0 | 0
30 | COCC[n+]1c2c(n(Cc3cnccn3)c1C)C(=O)c1ccccc1C2=O [YM155] | 24.1 | 33.4 | 20.5 | 34.6
31 | FC(F)c1nc2ccccc2n1-c1nc(N2CCOCC2)nc(N2CCOCC2)n1 [ZSTK474] | 0.2 | 6.1 | 0 | 0
32 | c1ccc(Cn2c(-c3ccc(OC[C@H](C4CCNCC4)n4c(-c5ccccc5)nc5ccccc54)cc3)nc3ccccc32)cc1 [deltarasin] | 5.7 | 7.3 | 9.2 | 7.3
